The values below come from the supplement of paper PMC10307832.

What all share (assay): relative viability (nuclei count vs DMSO), 5 days (fraction); higher = more cells survive
Compound in assay [1]: O=C(/C=C/c1ccccc1)NC(NC(=S)Nc1cccc2cccnc12)C(Cl)(Cl)Cl [Salubrinal] + O=C(c1cc(Cc2n[nH]c(=O)c3ccccc23)ccc1F)N1CCN(C(=O)C2CC2)CC1 [Olaparib] (partner 8 µM)
An outline of the steps: (§1)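 The day after seeding in 1536-well plates, lung cancer cell lines were treated by pin tool with a single drug, or with a fixed anchor-drug dose together with five library-drug doses (not always all listed) in √10 steps. After 5 days, a combined fix-and-stain solution (final 0.05% Triton X-100, 1% formaldehyde, 1 ug/ml Hoechst) was added. Nuclei counted on 4× images gave relative viability as treated counts over vehicle counts, reported as the median of duplicate plates.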

Compound in assay [2]: Cc1ccc2nc(NCCN)c3ncc(C)n3c2c1 + COc1cc2c(Oc3ccc(NC(=O)C4(C(=O)Nc5ccc(F)cc5)CC4)cc3F)ccnc2cc1OCCCN1CCOCC1 [Foretinib] (partner 0.25 µM)
In a few lines:
as §1

Compound in assay [3]: Cc1ccc2nc(NCCN)c3ncc(C)n3c2c1 + CS(=O)(=O)N1CCN(Cc2cc3nc(-c4cccc5[nH]ncc45)nc(N4CCOCC4)c3s2)CC1 [Pictilisib] (partner 1 µM)
An outline of the steps: as §1

Compound in assay [4]: O=C(/C=C/c1ccccc1)NC(NC(=S)Nc1cccc2cccnc12)C(Cl)(Cl)Cl [Salubrinal] + Cc1cc(Nc2cc(N3CCN(C)CC3)nc(Sc3ccc(NC(=O)C4CC4)cc3)n2)n[nH]1 [Tozasertib] (partner 0.1 µM)
In a few lines: as §1

Regarding RERF-LC-KJ, the relative viability is 0.901 in assay [1] (first compound 0.08 µM); 0.838 in assay [1] (first compound 0.253 µM); 0.996 in assay [1] (first compound 0.8 µM); 0.753 in assay [1] (first compound 2.53 µM); 0.951 in assay [1] (first compound 8 µM); 0.911 in assay [2] (first compound 0.04 µM). Besides, the relative viability in assay [2] (first compound 0.1265 µM) was 0.845; in assay [2] (first compound 0.4 µM) it was 0.851; in assay [2] (first compound 1.265 µM) it was 0.796; in assay [2] (first compound 4 µM) it was 0.828; in assay [3] (first compound 0.04 µM), 0.511; in assay [3] (first compound 0.1265 µM) it was 0.433. Moreover, the relative viability in assay [3] (first compound 0.4 µM) is 0.44; in assay [3] (first compound 1.265 µM), 0.542; in assay [3] (first compound 4 µM), 0.501; in assay [4] (first compound 0.08 µM), 0.584; in assay [4] (first compound 0.253 µM), 0.433; in assay [4] (first compound 0.8 µM), 0.513. Further, the relative viability in assay [4] (first compound 2.53 µM) is 0.435; in assay [4] (first compound 8 µM), 0.285.
With SK-LU-1, the relative viability in assay [1] (first compound 0.08 µM) was found to be 0.508; in assay [1] (first compound 0.253 µM), 0.452; in assay [1] (first compound 0.8 µM), 0.476; in assay [1] (first compound 2.53 µM), 0.454; in assay [1] (first compound 8 µM), 0.378; in assay [2] (first compound 0.04 µM) it was 0.824. The relative viability in assay [2] (first compound 0.1265 µM) amounted to 0.836; in assay [2] (first compound 0.4 µM), 0.9; in assay [2] (first compound 1.265 µM), 0.791; in assay [2] (first compound 4 µM), 0.781; in assay [3] (first compound 0.04 µM), 0.573; in assay [3] (first compound 0.1265 µM), 0.507. The relative viability in assay [3] (first compound 0.4 µM) is 0.604; in assay [3] (first compound 1.265 µM), 0.562; in assay [3] (first compound 4 µM), 0.291; in assay [4] (first compound 0.08 µM), 0.334; in assay [4] (first compound 0.253 µM), 0.326; in assay [4] (first compound 0.8 µM) it was 0.344. Besides, the relative viability in assay [4] (first compound 2.53 µM) turned out to be 0.287; in assay [4] (first compound 8 µM) it was 0.286.
For the cell line SK-MES-1, the relative viability in assay [1] (first compound 0.08 µM) was determined as 0.769; in assay [1] (first compound 0.253 µM), 0.694; in assay [1] (first compound 0.8 µM), 0.845; in assay [1] (first compound 2.53 µM), 0.605; in assay [1] (first compound 8 µM), 0.598; in assay [2] (first compound 0.04 µM), 1.04. Further, the relative viability was 0.91 in assay [2] (first compound 0.1265 µM); 1.01 in assay [2] (first compound 0.4 µM); 0.853 in assay [2] (first compound 1.265 µM); 0.875 in assay [2] (first compound 4 µM); 0.411 in assay [3] (first compound 0.04 µM); 0.345 in assay [3] (first compound 0.1265 µM). Besides, the relative viability in assay [3] (first compound 0.4 µM) is 0.341; in assay [3] (first compound 1.265 µM), 0.378; in assay [3] (first compound 4 µM), 0.35; in assay [4] (first compound 0.08 µM), 1.01; in assay [4] (first compound 0.253 µM), 0.816; in assay [4] (first compound 0.8 µM), 1.04. For the same cell line, the relative viability in assay [4] (first compound 2.53 µM) stood at 0.895; in assay [4] (first compound 8 µM), 0.694.
Regarding SW 1573, the relative viability in assay [1] (first compound 0.08 µM) turned out to be 0.607; in assay [1] (first compound 0.253 µM), 0.488; in assay [1] (first compound 0.8 µM), 0.542; in assay [1] (first compound 2.53 µM), 0.43; in assay [1] (first compound 8 µM), 0.522; in assay [2] (first compound 0.04 µM), 1.02. For the same cell line, the relative viability was found to be 0.966 in assay [2] (first compound 0.1265 µM); 1.09 in assay [2] (first compound 0.4 µM); 0.945 in assay [2] (first compound 1.265 µM); 0.859 in assay [2] (first compound 4 µM); 0.449 in assay [3] (first compound 0.04 µM); 0.577 in assay [3] (first compound 0.1265 µM). In addition, the relative viability in assay [3] (first compound 0.4 µM) turned out to be 0.418; in assay [3] (first compound 1.265 µM), 0.507; in assay [3] (first compound 4 µM), 0.502; in assay [4] (first compound 0.08 µM), 0.176; in assay [4] (first compound 0.253 µM) it was 0.172; in assay [4] (first compound 0.8 µM) it was 0.155. In addition, the relative viability in assay [4] (first compound 2.53 µM) stood at 0.194; in assay [4] (first compound 8 µM) it was 0.151.
UMC-11: the relative viability in assay [1] (first compound 0.08 µM) stood at 0.355; in assay [1] (first compound 0.253 µM) it was 0.368; in assay [1] (first compound 0.8 µM), 0.386; in assay [1] (first compound 2.53 µM) it was 0.337; in assay [1] (first compound 8 µM), 0.393; in assay [2] (first compound 0.04 µM), 1.02. For the same cell line, the relative viability in assay [2] (first compound 0.1265 µM) came out at 0.999; in assay [2] (first compound 0.4 µM), 1.02; in assay [2] (first compound 1.265 µM), 1.01; in assay [2] (first compound 4 µM), 0.945; in assay [3] (first compound 0.04 µM) it was 0.857; in assay [3] (first compound 0.1265 µM), 0.692. Moreover, the relative viability in assay [3] (first compound 0.4 µM) amounted to 0.808; in assay [3] (first compound 1.265 µM) it was 0.813; in assay [3] (first compound 4 µM), 0.708; in assay [4] (first compound 0.08 µM), 0.208; in assay [4] (first compound 0.253 µM), 0.225; in assay [4] (first compound 0.8 µM) it was 0.21. In addition, the values for the relative viability in assay [4] (first compound 2.53 µM) and in assay [4] (first compound 8 µM) were 0.186 and 0.189, respectively.
